Here are results for seven compounds from ChEMBL document CHEMBL5346876, “Hybrids of polyphenolic/quinone acids, the potential preventive and therapeutic drugs for PD: Disaggregate α-Syn fibrils, inhibit inclusions, and repair damaged neurons in mice” (Eur J Med Chem, 2023).

Data set [1] concerns H4. Briefly: Antioxidant activity in H2O2-induced human H4 cells assessed as reduction in exogenous ROS level by measuring dark green fluorescence preincubated with H2O2 for 3 hrs followed by compound addition and measured after 30 mins by flow cytometric analysis. Format: functional, cell-based. On the technique in general: In flow cytometry, cells or beads pass a laser one at a time.

Data set [2] deals with H4. Briefly: Antioxidant activity in H2O2-induced human H4 cells assessed as reduction in ROS generation ratio preincubated with H2O2 for 3 hrs followed by DCFH-DA addition for 30 mins and further incubated with compound and measured after 30 mins by DCFH-DA dye based fluorescence microplate reader analysis. The conditions noted are these: dose 3-10 µM. Format: functional, cell-based.

For data set [3], the system named is H4. Briefly: Antioxidant activity in H2O2-induced human H4 cells assessed as reduction in endogenous ROS level by measuring green fluorescence preincubated with H2O2 for 3 hrs followed by compound addition and measured after 30 mins by flow cytometric analysis. Format: functional, cell-based.
Data set [4] can be described thus: Cytotoxicity against human SH-SY5Y cells assessed as cell viability at 100 uM incubated for 48 hrs by CCK-8 assay relative to control. Format: toxicity, cell-based. The conditions noted are these: read-out: Activity. (In general: Tetrazolium dyes change colour on reduction, which living cells bring about.)
Data set [5] is described as follows: Cytotoxicity against human H4 cells assessed as cell viability at 100 uM incubated for 48 hrs by CCK-8 assay relative to control. Format: toxicity, cell-based. The conditions noted are these: read-out: Activity.
Data set [6] deals with H4. The data set is described as follows: Antioxidant activity in H2O2-induced human H4 cells assessed as ROS scavenging at 10 uM preincubated with H2O2 for 3 hrs followed by DCFH-DA addition for 30 mins and further incubated with compound and measured after 30 mins by DCFH-DA dye based fluorescence microplate reader analysis relative to control. Format: functional. The conditions noted are these: 0.5 h.

Data set [7] deals with Mus musculus. Briefly: Neuroprotective activity against 6-OHDA-induced lesioned C57 mouse model of Parkinson's disease assessed as increase in survival of ipsilateral dopaminergic neuron in caudate putamen nucleus of brain by measuring tyrosine hydroxylase fluorescence intensity administered via right striatum and measured after 21 days by immunofluorescence staining analysis (reference value: 11.5 %). The class given is functional. The conditions noted are these: time 21 day.

Data set [8] concerns Mus musculus. Briefly: Neuroprotective activity against 6-OHDA-induced lesioned C57 mouse model of Parkinson's disease assessed as improvement of weakened grip administered via right striatum and measured after 14 days by rotarod test. Format: functional, organism-based. The conditions noted are these: time 14.0 day.
Data set [9] concerns Mus musculus. Briefly: Neuroprotective activity against 6-OHDA-induced lesioned C57 mouse model of Parkinson's disease assessed as reduction in weight loss administered via right striatum and measured after 14 days. The conditions noted are these: time 14.0 day. The class given is functional, organism-based.
Data set [10] has as its system Mus musculus. Briefly: Neuroprotective activity against 6-OHDA-induced lesioned C57 mouse model of Parkinson's disease assessed as protection of dopaminergic neuronal damage administered via right striatum and measured after 21 days. Format: functional, organism-based. The conditions noted are these: time 21.0 day.
Data set [11] can be described thus: Toxicity in C57 mouse assessed as effect on survival of ipsilateral dopaminergic neuron in caudate putamen nucleus of brain administered via right striatum and measured after 21 days by immunofluorescence staining analysis. The conditions noted are these: in vivo, other, 504 h, time 21 day.
The subject of data set [12] is Mus musculus. The data set is described as follows: Neuroprotective activity against 6-OHDA-induced lesioned C57 mouse model of Parkinson's disease assessed as improvement of poor balance administered via right striatum and measured after 14 days by rotarod test. The conditions noted are these: time 14.0 day. The class given is functional, organism-based.
The subject of data set [13] is Mus musculus. The data set is described as follows: Neuroprotective activity against 6-OHDA-induced lesioned C57 mouse model of Parkinson's disease assessed as reduction of dopaminergic neuronal damage at 2.7 ug administered via right striatum and measured after 21 days. Format: functional, organism-based. The conditions noted are these: dose 2.7 µg, time 21.0 day.

Data set [14] is described as follows: Toxicity in C57 mouse assessed as effect on survival of ipsilateral dopaminergic neuron in substantia nigra pars reticulate of brain administered via right striatum and measured after 21 days by immunofluorescence staining analysis. The conditions noted are these: in vivo, other, 504 h, time 21 day.
The test system of data set [15] is Mus musculus. The data set is described as follows: Neuroprotective activity against 6-OHDA-induced lesioned C57 mouse model of Parkinson's disease assessed as increase in survival of ipsilateral dopaminergic neuron in substantia nigra pars reticulate of brain by measuring tyrosine hydroxylase fluorescence intensity administered via right striatum and measured after 21 days by immunofluorescence staining analysis (reference value: 9.7 %). Format: functional. The conditions noted are these: time 21 day.

The nature of data set [16]: Toxicity in C57 mouse assessed as effect on time spend in rod administered via right striatum and measured after 14 days by rotarod test. The conditions noted are these: in vivo, other, 336 h, time 14 day. (In general: In the rotarod test animals must keep their balance on a rotating rod.)
Data set [17] has as its system Mus musculus. Briefly: Neuroprotective activity against 6-OHDA-induced lesioned C57 mouse model of Parkinson's disease assessed as reduction in ipsilateral dopaminergic neuron damage in caudate putamen nucleus of brain administered via right striatum and measured after 21 days by immunofluorescence staining analysis. Format: functional, organism-based. The conditions noted are these: time 21.0 day.

For data set [18], the system named is Mus musculus. Briefly: Neuroprotective activity against 6-OHDA-induced lesioned C57 mouse model of Parkinson's disease assessed as improvement of stiff limbs administered via right striatum and measured after 14 days by rotarod test. Format: functional, organism-based. The conditions noted are these: time 14.0 day.
The subject of data set [19] is Mus musculus. The data set is described as follows: Neuroprotective activity against 6-OHDA-induced lesioned C57 mouse model of Parkinson's disease assessed as reduction in apomorphine-induced contralateral rotation by measuring decrease in turn number preadministered with compound for 14 days via right striatum and measured 30 mins after apomorphine addition by videotaping analysis relative to control. Format: functional. Also noted: scale not given: the % may be the effect or the level left. The conditions noted are these: time 336.5 hrs.

The source made the active and inactive calls. The rule behind the calls is not given here. A value given as a limit tells only on which side of the number the result lay.

As to `O=C1C=CC(=O)C(/C=C/C(=O)Nc2ccc(NC(=O)c3ccc(F)cc3F)cc2)=C1`, the outcome in [1] and in [3] was Active. Moreover, the Activity result in [2] is “Dose-Dependent Effect”. Further, the viability at 48 h, 100 µM in data set [4] and in [5] was more than 85% in each case.

For the compound `O=C1C=CC(=O)C(/C=C/C(=O)Nc2ccc(NC(=O)c3ccc(F)c(F)c3)cc2)=C1`, the Activity result in data set [2] is “Dose-Dependent Effect”. Further, the viability at 48 h, 100 µM in data set [4] and in [5] was more than 85% throughout.

As for `O=C(/C=C/c1cc(O)ccc1O)Nc1ccc(NC(=O)c2ccc(F)cc2F)cc1`, the result in [1] and in data set [3] was Active. Also, in data set [2], the Activity result was “Dose-Dependent Effect”. The viability at 48 h, 100 µM in [4] and in data set [5] was more than 85% in each case.

On to `O=C(/C=C/c1ccc(O)c(O)c1)Nc1ccc(NC(=O)c2ccc(F)cc2)cc1`, for which the Activity entry is “Dose-Dependent Effect” in data set [2] and 70% in [6].

As to `O=C(/C=C/c1cc(O)ccc1O)Nc1ccc(NC(=O)c2ccc(O)cc2)cc1`, the values for the Activity entry in data set [2] and in [6] were “Dose-Dependent Effect” and 70%, respectively. The viability at 48 h, 100 µM in [4] and in data set [5] was more than 85% in each case.

As to `O=C1C=CC(=O)C(/C=C/C(=O)Nc2ccc(NC(=O)c3ccc(F)cc3)cc2)=C1`, the figures for the Activity entry in [2] and in data set [6] were “Dose-Dependent Effect” and 70%, respectively. Also, the viability at 48 h, 100 µM in [4] and in [5] was more than 85% throughout.

`O=C(/C=C/c1cc(O)ccc1O)Nc1ccc(NC(=O)/C=C/c2cc(O)ccc2O)cc1`: the Flu intensity in data set [7] stood at 66.2%; in data set [15], 65.1%. Further, the outcome in data set [8], in data set [9], in [12], in data set [13], in data set [17] and in [18] was Active. Also, the Activity result is “Dose-Dependent Effect” in [10]; “Dose-Dependent Effect” in data set [2]; “Non-Toxic” in [11]; “Non-Toxic” in data set [14]; 70% in data set [6]; 87% in data set [19]. For the same compound, in [16], the Time came to 264 s. Moreover, the viability at 48 h, 100 µM in [4] and in [5] was more than 85% each time.
